In US20230365559A1, “NOVEL AMINOPYRIDINES AND THEIR USE IN TREATING CANCER” (priority 2020, published 2023):
Where “and” joins values, the source holds several entries; their conditions need not be identical. Equal entries are not always repeated. Entries after “also recorded” stand apart in the source; their conditions may differ.

What was measured:
ATM = ATM (Homo sapiens, UniProt Q13315); test: ATM Human PIKK Kinase Enzymatic ELISA/EIA Assay, KinaseProfiler (Eurofins Discovery); assay type: biochemical; details: for IC50: KinaseProfiler, Km ATP, Table 15, read-out: Inhibition of PIKK kinase activity ATM; for remaining activity at 1 µM: read-out: ATM, Percent of control at 1 μM
Chain of ATM (Q13315 whole entry): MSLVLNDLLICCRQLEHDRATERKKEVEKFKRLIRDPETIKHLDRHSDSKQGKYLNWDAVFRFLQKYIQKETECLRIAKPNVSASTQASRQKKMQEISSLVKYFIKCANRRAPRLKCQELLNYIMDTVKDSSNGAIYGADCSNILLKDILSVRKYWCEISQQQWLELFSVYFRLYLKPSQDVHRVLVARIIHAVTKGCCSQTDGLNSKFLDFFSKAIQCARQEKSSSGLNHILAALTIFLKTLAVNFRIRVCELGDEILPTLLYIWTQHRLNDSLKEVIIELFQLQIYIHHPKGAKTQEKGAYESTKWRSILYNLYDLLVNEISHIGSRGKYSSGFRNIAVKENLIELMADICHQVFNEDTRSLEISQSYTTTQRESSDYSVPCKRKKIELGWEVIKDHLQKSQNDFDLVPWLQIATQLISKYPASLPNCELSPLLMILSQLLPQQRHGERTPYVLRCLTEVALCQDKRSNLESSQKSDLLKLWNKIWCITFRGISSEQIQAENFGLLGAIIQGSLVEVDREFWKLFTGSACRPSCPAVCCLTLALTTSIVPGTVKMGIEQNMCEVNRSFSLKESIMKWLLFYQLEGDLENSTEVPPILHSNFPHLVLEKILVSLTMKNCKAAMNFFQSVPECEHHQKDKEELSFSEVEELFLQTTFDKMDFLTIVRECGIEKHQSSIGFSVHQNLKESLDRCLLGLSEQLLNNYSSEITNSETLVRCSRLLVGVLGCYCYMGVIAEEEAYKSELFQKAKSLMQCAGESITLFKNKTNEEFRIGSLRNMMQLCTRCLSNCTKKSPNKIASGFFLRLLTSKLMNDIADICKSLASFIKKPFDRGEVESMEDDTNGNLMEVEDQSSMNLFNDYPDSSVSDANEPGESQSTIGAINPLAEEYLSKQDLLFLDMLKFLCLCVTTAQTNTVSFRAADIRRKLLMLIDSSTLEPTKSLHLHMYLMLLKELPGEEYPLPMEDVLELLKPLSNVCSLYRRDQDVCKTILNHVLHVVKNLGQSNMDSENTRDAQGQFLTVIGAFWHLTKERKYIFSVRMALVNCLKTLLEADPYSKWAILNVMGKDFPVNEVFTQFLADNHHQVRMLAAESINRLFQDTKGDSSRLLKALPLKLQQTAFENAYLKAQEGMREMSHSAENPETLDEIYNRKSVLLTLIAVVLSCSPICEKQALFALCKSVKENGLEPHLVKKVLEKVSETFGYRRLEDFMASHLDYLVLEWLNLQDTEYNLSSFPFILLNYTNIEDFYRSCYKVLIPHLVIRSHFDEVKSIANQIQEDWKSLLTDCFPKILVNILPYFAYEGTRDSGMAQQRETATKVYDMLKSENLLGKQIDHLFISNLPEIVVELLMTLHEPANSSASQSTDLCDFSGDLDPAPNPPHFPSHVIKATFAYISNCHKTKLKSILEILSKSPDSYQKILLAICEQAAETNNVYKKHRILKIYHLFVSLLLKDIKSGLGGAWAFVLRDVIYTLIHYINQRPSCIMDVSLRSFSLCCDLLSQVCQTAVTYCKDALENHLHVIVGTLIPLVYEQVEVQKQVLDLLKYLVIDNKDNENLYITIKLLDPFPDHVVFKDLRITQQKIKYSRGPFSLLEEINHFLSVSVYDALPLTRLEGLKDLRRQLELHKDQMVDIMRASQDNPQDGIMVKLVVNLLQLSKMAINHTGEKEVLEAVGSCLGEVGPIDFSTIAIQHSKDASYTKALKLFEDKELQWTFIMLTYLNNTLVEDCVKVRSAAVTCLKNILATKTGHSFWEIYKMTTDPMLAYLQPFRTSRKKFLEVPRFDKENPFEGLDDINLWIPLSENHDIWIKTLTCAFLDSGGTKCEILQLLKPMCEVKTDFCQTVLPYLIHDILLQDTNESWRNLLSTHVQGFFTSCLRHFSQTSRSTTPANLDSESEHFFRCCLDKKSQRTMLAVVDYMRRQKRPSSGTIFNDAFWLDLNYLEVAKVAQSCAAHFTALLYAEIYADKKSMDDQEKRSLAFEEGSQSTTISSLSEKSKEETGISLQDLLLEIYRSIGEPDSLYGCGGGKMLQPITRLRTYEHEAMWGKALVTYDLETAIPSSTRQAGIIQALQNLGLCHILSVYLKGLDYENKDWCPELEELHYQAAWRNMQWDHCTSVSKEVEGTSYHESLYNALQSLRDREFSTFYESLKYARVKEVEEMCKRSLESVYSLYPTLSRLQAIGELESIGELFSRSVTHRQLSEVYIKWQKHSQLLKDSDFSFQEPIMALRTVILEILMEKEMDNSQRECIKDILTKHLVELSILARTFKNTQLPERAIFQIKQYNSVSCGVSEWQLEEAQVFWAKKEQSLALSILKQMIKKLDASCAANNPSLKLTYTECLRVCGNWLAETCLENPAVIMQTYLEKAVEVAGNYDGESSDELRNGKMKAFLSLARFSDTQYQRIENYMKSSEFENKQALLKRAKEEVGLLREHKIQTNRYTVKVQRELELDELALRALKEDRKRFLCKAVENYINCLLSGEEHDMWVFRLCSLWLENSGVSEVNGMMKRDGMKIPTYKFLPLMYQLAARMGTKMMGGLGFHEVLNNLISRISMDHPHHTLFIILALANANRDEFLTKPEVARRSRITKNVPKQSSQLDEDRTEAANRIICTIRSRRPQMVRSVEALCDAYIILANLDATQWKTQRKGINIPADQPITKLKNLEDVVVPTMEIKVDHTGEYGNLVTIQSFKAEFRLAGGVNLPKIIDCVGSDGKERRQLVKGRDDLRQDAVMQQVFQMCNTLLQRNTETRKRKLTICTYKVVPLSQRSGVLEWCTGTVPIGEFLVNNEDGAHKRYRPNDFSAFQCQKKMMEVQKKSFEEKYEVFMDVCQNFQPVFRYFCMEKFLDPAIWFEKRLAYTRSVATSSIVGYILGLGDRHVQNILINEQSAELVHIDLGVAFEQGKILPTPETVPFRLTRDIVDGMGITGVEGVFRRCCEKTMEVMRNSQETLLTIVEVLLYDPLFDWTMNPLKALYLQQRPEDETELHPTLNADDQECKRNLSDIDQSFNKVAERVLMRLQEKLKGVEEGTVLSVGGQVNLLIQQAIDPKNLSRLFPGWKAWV

human mTOR = human mTOR (Homo sapiens, UniProt P42345); test: Inhibition of mTOR kinase activity, HotSpot assay, phosphorylation of 4EPB1; details: Inhibition of kinase activity (as IC50) mTOR (nM), 10 μM ATP; mean of two replicates; Table 12
human PI3Kα (p110α/p85α) = human PI3Kα (p110α/p85α) (Homo sapiens, UniProt P42336); test: Inhibition of PI3Kα kinase activity, ADP-Glo Assay (Reaction Biology); assay type: biochemical; details: 10 μM ATP; mean of two replicates; Table 12; read-out: Inhibition of kinase activity (as IC50) PICK
Chain of human PI3Kα (p110α/p85α) (P42336 whole entry): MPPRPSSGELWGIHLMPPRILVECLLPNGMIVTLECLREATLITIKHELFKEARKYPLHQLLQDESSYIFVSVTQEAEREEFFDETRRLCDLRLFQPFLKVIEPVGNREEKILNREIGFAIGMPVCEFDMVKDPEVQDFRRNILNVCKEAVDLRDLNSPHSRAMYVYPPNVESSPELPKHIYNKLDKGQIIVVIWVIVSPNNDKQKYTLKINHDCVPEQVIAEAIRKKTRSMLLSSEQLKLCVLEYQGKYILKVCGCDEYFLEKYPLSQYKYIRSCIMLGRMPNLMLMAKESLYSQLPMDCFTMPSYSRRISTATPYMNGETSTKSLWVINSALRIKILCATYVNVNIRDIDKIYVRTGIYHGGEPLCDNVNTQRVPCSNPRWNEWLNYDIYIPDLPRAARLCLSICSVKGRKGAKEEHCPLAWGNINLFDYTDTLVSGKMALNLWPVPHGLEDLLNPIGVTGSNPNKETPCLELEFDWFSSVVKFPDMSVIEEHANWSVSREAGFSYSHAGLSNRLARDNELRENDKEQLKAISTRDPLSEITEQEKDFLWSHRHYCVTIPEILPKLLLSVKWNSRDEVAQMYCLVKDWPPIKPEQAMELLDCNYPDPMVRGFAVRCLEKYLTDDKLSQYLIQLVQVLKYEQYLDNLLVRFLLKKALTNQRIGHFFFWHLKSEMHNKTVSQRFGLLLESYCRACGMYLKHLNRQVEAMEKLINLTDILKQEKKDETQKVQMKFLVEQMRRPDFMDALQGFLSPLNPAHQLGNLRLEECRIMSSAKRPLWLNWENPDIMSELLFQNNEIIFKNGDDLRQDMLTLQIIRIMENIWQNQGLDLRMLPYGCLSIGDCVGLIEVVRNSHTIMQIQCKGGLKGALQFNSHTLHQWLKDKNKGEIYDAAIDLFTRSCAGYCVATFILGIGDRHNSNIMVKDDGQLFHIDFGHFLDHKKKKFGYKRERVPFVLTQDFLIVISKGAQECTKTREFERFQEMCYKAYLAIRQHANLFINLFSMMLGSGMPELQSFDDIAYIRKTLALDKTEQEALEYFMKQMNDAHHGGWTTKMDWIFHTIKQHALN
Chain of human PI3Kα (p110α/p85α) (P27986 whole entry partner): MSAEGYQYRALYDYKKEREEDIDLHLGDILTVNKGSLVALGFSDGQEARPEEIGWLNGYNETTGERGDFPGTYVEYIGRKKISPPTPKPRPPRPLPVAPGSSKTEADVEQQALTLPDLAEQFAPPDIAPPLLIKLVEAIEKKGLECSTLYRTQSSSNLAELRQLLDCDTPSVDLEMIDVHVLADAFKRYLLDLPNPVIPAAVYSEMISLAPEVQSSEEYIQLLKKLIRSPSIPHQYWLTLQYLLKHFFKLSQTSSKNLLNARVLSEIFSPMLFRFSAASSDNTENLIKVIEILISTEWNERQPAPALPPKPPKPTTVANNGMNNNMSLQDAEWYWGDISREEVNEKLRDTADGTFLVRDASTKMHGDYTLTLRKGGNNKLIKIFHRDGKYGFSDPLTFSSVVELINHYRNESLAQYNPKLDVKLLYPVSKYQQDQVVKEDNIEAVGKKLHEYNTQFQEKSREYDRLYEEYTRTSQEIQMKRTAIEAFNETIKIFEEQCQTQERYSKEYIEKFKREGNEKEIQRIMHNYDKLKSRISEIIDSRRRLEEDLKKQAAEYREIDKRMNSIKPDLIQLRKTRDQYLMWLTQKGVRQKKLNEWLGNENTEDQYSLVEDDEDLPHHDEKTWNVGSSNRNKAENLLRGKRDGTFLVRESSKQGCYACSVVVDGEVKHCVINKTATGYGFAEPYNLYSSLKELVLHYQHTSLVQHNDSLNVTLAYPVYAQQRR

UT-SCC-54C cells [1] = test: Radiosensitisation of UT-SCC-54C HNSCC cells, regrowth (sulforhodamine B) assay, oxic (Table 16); assay type: cell-based, human; details: for IC50: Homo sapiens, read-out: IC50; for S50: compound in combination with 3 Gy of radiation, 50% inhibition of regrowth fraction, UT-SCC-54C, oxic
human DNA-PK = human DNA-PK (Homo sapiens, UniProt P78527); test: Inhibition of DNA-PKcs kinase activity, HotSpot assay (Reaction Biology), [γ-33P]-ATP phosphorylation of peptide substrate; assay type: biochemical; details: 10 μM ATP, 10 μg/ml DNA; mean of two replicates; Table 12; read-out: Inhibition of kinase activity (as IC50) DNA-PK (converted)
HAP1/PRKDC−/− cells = test: Radiosensitisation of DNA-PK null HAP1/PRKDC−/− cells, regrowth assay; assay type: cell-based, human; details: for radiosensitisation / differential growth inhibition of DNA-PK null HAP1 line: 3 Gy, HAP1/PRKDC−/−; for IC50: Homo sapiens, HAP1
HAP1 cells = test: Radiosensitisation of HAP1 wild type cells, regrowth assay; assay type: cell-based, human; details: for effect in unirradiated HAP1 cells: 0 Gy; for IC50: Homo sapiens, HAP1, read-out: HAP1 wt IC50
UT-SCC-54C cells [2] = test: Radiosensitisation of UT-SCC-54C HNSCC cells, clonogenic survival, oxic and anoxic (Table 18); assay type: cell-based, human; details: for Plating efficiency drug/no drug: no radiation

Cn1c(=O)n(C2CCCC2)c2cc(Nc3cnc4ccccc4c3)ncc21 [Compound 64, 1-Cyclopentyl-3-methyl-6-(quinolin-3-ylamino)-1,3-dihydro-2H-imidazo[4,5-c]pyridin-2-one]
IC50 (ATM): 1.1 µM

Cc1cc(NCCN(C)C)ccc1Nc1cc2c(cn1)n(C)c(=O)n2C1CCCC1 [Compound 56, 1-Cyclopentyl-6-((4-((2-(dimethylamino)ethyl)amino)-2-methylphenyl)amino)-3-methyl-1,3-dihydro-2H-imidazo[4,5-c]pyridin-2-one]
remaining activity at 1 µM (ATM): 86%

Cn1c(=O)n(C2CCCC2)c2cc(Nc3ccc4nccnc4c3)ncc21 [Compound 68, 1-Cyclopentyl-3-methyl-6-(quinoxalin-6-ylamino)-1,3-dihydro-2H-imidazo[4,5-c]pyridin-2-one]
IC50 (ATM): 0.94 µM

Cc1nc2cc(C)c(Nc3cc4c(cn3)n(C)c(=O)n4C3CCOCC3)cc2o1 [Compound 132, 6-((2,5-Dimethylbenzo[d]oxazol-6-yl)amino)-3-methyl-1-(tetrahydro-2H-pyran-4-yl)-1,3-dihydro-2H-imidazo[4,5-c]pyridin-2-one]
IC50 (human mTOR): 60200 nM
IC50 (human PI3Kα (p110α/p85α)): 5.57 µM
IC50 (UT-SCC-54C cells [1]): > 10 µM
S50 (UT-SCC-54C cells [1]): 0.49 µM
IC50 (human DNA-PK): 0.0126 µM
radiosensitisation / differential growth inhibition of DNA-PK null HAP1 line (HAP1/PRKDC−/− cells): did not radiosensitise
effect in unirradiated HAP1 cells (HAP1 cells): little effect
radiosensitisation / differential growth inhibition of HAP1 cells (HAP1 cells; 3 Gy cobalt-60 gamma irradiation relative to radiation-only): concentration-dependent radiosensitisation

Cn1c(=O)n(C2CCCC2)c2cc(Nc3cccc4ncccc34)ncc21 [Compound 65, 1-Cyclopentyl-3-methyl-6-(quinolin-5-ylamino)-1,3-dihydro-2H-imidazo[4,5-c]pyridin-2-one]
remaining activity at 1 µM (ATM): 93%

Cc1cc(Cl)ccc1Nc1cc2c(cn1)n(C)c(=O)n2C1CCOC1 (stereo not shown) [Compound 116, 6-((4-Chloro-2-methylphenyl)amino)-3-methyl-1-(tetrahydrofuran-3-yl)-1,3-dihydro-2H-imidazo[4,5-c]pyridin-2-one]
IC50 (human PI3Kα (p110α/p85α)): 5.46 µM
IC50 (UT-SCC-54C cells [1]): > 10 µM
S50 (UT-SCC-54C cells [1]): 0.06 µM
IC50 (human DNA-PK): 0.0049 µM
IC50 (HAP1/PRKDC−/− cells): > 10 µM
IC50 (HAP1 cells): > 10 µM

Cc1cc(O)ccc1Nc1cc2c(cn1)n(C)c(=O)n2C1CCOCC1 [Compound 135, 6-((4-Hydroxy-2-methylphenyl)amino)-3-methyl-1-(tetrahydro-2H-pyran-4-yl)-1,3-dihydro-2H-imidazo[4,5-c]pyridin-2-one]
D1 (radiation dose for 1% surviving fraction) (UT-SCC-54C cells [2]; 0% O2, compound conc 1 μM): 11.5 Gy
D10 (radiation dose for 10% surviving fraction) (UT-SCC-54C cells [2]; 0% O2, compound conc 1 μM): 6.37 Gy
SER1 (sensitiser enhancement ratio at 1% surviving fraction) (UT-SCC-54C cells [2]; 0% O2, compound conc 1 μM): 2.07
SER10 (sensitiser enhancement ratio at 10% surviving fraction) (UT-SCC-54C cells [2]; 0% O2, compound conc 1 μM): 2.47
Plating efficiency drug/no drug (UT-SCC-54C cells [2]; 0% O2, compound conc 1 μM): 1.12
D1 (radiation dose for 1% surviving fraction) (UT-SCC-54C cells [2]; 20% O2, compound conc 0.33 μM): 1.37 Gy
D10 (radiation dose for 10% surviving fraction) (UT-SCC-54C cells [2]; 20% O2, compound conc 0.33 μM): 4.85 Gy
SER1 (sensitiser enhancement ratio at 1% surviving fraction) (UT-SCC-54C cells [2]; 20% O2, compound conc 0.33 μM): 1.20
SER10 (sensitiser enhancement ratio at 10% surviving fraction) (UT-SCC-54C cells [2]; 20% O2, compound conc 0.33 μM): 8.09
Plating efficiency drug/no drug (UT-SCC-54C cells [2]; 20% O2, compound conc 0.33 μM): 0.77
D10 (radiation dose for 10% surviving fraction) (UT-SCC-54C cells [2]; 20% O2, compound conc 1 μM): 3.15 Gy and 2.88 Gy
SER1 (sensitiser enhancement ratio at 1% surviving fraction) (UT-SCC-54C cells [2]; 20% O2, compound conc 1 μM): 1.5 and 1.59
Plating efficiency drug/no drug (UT-SCC-54C cells [2]; 20% O2, compound conc 1 μM): 0.59 and 0.89
D1 (radiation dose for 1% surviving fraction) (UT-SCC-54C cells [2]; 20% O2, compound conc 3 μM): 2.91 Gy
D10 (radiation dose for 10% surviving fraction) (UT-SCC-54C cells [2]; 20% O2, compound conc 3 μM): 2.28 Gy
SER1 (sensitiser enhancement ratio at 1% surviving fraction) (UT-SCC-54C cells [2]; 20% O2, compound conc 3 μM): 1.92
SER10 (sensitiser enhancement ratio at 10% surviving fraction) (UT-SCC-54C cells [2]; 20% O2, compound conc 3 μM): 5.06
Plating efficiency drug/no drug (UT-SCC-54C cells [2]; 20% O2, compound conc 3 μM): 0.63
radiosensitisation, clonogenic survival endpoint (UT-SCC-54C cells [2]; UT-SCC-54C, FIG. 8 and Table 18): concentration-dependent increases in radiosensitisation
IC50 (human PI3Kα (p110α/p85α)): 3.22 µM and 5.24 µM
IC50 (UT-SCC-54C cells [1]): > 10 µM
S50 (UT-SCC-54C cells [1]): 0.93 µM
IC50 (human DNA-PK): 0.0057 µM and 0.0171 µM
radiosensitisation / differential growth inhibition of DNA-PK null HAP1 line (HAP1/PRKDC−/− cells): did not radiosensitise; also recorded: did not demonstrate any differential growth inhibition
IC50 (HAP1/PRKDC−/− cells): > 10 µM
effect in unirradiated HAP1 cells (HAP1 cells): little effect
IC50 (HAP1 cells): > 10 µM

Cn1c(=O)n(C2CCCC2)c2cc(Nc3cccc4cnccc34)ncc21 [Compound 66, 1-Cyclopentyl-6-(isoquinolin-5-ylamino)-3-methyl-1,3-dihydro-2H-imidazo[4,5-c]pyridin-2-one]
remaining activity at 1 µM (ATM): 92%
